Laboratory results reported in patent US6555548B2, “Compounds for treating fibromyalgia and chronic fatigue syndrome” (Pharmacia & Upjohn Company, priority 2000, dated 2003).

melting point | SMILES
210 to 213 °C | CN[C@@H]1Cc2cccc3[nH]c(=S)n(c23)C1
195 to 196 °C | CN[C@@H]1Cc2cccc3[nH]c(=S)n(c23)C1.O=C(O)/C=C\C(=O)O
